Measured values as given in US20160002204A1 (Board of Regents, The University of Texas System, priority 2014, published 2016).

Experiments:
[1] = molecular target: T1, GLS1 (purified recombinant human GAC) (Homo sapiens, UniProt O94925); test: GLS1 enzymatic activity assay (dual-coupled, Amplex UltraRed/resorufin); format: biochemical
T1 sequence (O94925 55-598 isoform O94925-3 limits assumed): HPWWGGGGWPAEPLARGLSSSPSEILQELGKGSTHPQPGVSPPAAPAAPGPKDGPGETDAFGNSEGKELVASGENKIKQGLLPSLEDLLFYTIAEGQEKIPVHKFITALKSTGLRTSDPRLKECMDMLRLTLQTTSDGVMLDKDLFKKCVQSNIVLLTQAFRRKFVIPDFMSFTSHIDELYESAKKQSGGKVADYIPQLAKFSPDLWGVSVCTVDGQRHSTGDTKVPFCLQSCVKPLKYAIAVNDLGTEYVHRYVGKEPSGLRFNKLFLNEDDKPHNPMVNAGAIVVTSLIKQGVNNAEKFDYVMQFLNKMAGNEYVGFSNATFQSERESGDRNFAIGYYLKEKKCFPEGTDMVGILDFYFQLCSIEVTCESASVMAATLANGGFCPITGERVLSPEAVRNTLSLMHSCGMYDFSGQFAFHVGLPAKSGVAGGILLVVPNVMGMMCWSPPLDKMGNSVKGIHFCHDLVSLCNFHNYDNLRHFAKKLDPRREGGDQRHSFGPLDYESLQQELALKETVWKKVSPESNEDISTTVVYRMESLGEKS
Outline: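 In this coupled fluorometric format, phosphate-activated GAC (2 nM, 50 mM phosphate) is pre-exposed to compound for 10 min before 1 mM glutamine addition. Product is tracked as resorufin (530/590 nm) over time or at 20 min, and potency is derived by logistic fitting.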

A549 cells = test: A549 proliferation (viability) assay, Cell Titer Fluor, 72 hours; format: cell-based; conditions: Homo sapiens
Outline: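 Fluorescence read-out (Cell Titer Fluor, 30 min at 37 °C after reagent) after 72 h compound exposure of A549 cells; EC50 by four-parameter logistic curve fit. Cells: 1000/well, RPMI 1640 + 10% dialyzed FBS, 0.5% DMSO final.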

IC50 [1]	EC50 (A549 cells)	SMILES
< 100 nM	100 to 500 nM	O=C(NCc1cc(C(F)(F)F)ccn1)c1cn(CC(F)CCn2ccc(COc3cccc(F)c3)cc2=O)nn1 (stereo not drawn) [Example 482, 1-{2-fluoro-4-[4-(3-fluorophenoxymethyl)-2-oxo-1,2-dihydropyridin-1-yl]butyl}-N-{[4-(trifluoromethyl)pyridin-2-yl]methyl}-1H-1,2,3-triazole-4-carboxamide]
< 100 nM	100 to 500 nM	O=C(NCc1cc(C(F)(F)F)ccn1)c1cn(CC(F)CCn2ccc(COc3cccc(OC(F)(F)F)c3)cc2=O)nn1 (stereo not drawn) [Example 483, 1-(2-fluoro-4-{2-oxo-4-[3-(trifluoromethoxy)phenoxymethyl]-1,2-dihydropyridin-1-yl}butyl)-N-{[4-(trifluoromethyl)pyridin-2-yl]methyl}-1H-1,2,3-triazole-4-carboxamide]
< 100 nM	100 to 500 nM	O=C(NCc1cc(C(F)(F)F)ccn1)c1cn(CC(F)CCn2ccc(COc3ccc(F)cc3F)cc2=O)nn1 (stereo not drawn) [Example 484, 1-{4-[4-(2,4-difluorophenoxymethyl)-2-oxo-1,2-dihydropyridin-1-yl]-2-fluorobutyl}-N-{[4-(trifluoromethyl)pyridin-2-yl]methyl}-1H-1,2,3-triazole-4-carboxamide]
100 to 500 nM	100 to 500 nM	O=C(NCc1cc(C(F)(F)F)ccn1)c1cn(CC(F)CCn2ccc(COc3c(F)cccc3F)cc2=O)nn1 (stereo not drawn) [Example 485, 1-{4-[4-(2,6-difluorophenoxymethyl)-2-oxo-1,2-dihydropyridin-1-yl]-2-fluorobutyl}-N-{[4-(trifluoromethyl)pyridin-2-yl]methyl}-1H-1,2,3-triazole-4-carboxamide]
< 100 nM	< 100 nM	O=C(NCc1cc(C(F)(F)F)ccn1)c1cn(CC(F)CCn2ccc(COc3ccc(Cl)cc3)cc2=O)nn1 (stereo not drawn) [Example 486, 1-{4-[4-(4-chlorophenoxymethyl)-2-oxo-1,2-dihydropyridin-1-yl]-2-fluorobutyl}-N-{[4-(trifluoromethyl)pyridin-2-yl]methyl}-1H-1,2,3-triazole-4-carboxamide]
100 to 500 nM	100 to 500 nM	O=C(NCc1cc(C(F)(F)F)ccn1)c1cn(CC(F)CCn2ccc(COc3ccccc3F)cc2=O)nn1 (stereo not drawn) [Example 487, 1-{2-fluoro-4-[4-(2-fluorophenoxymethyl)-2-oxo-1,2-dihydropyridin-1-yl]butyl}-N-{[4-(trifluoromethyl)pyridin-2-yl]methyl}-1H-1,2,3-triazole-4-carboxamide]
< 100 nM	< 100 nM	O=C(Nc1ccn(CCC(F)Cn2cc(C(=O)NCc3cc(C(F)(F)F)ccn3)nn2)c(=O)n1)OCc1ccccc1 (stereo not drawn) [Example 488, benzyl N-(1-{3-fluoro-4-[4-({[4-(trifluoromethyl)pyridin-2-yl]methyl}carbamoyl)-1H-1,2,3-triazol-1-yl]butyl}-2-oxo-1,2-dihydropyrimidin-4-yl)carbamate]
< 100 nM	< 100 nM	O=C(Nc1ccn(CCC(F)Cn2cc(C(=O)NCc3cccc(OC(F)(F)F)c3)nn2)c(=O)n1)OCc1ccccc1F (stereo not drawn) [Example 489, (2-fluorophenyl)methyl N-(1-{3-fluoro-4-[4-({[3-(trifluoro-methoxy)phenyl]methyl}carbamoyl)-1H-1,2,3-triazol-1-yl]butyl}-2-oxo-1,2-dihydropyrimidin-4-yl)carbamate]
< 100 nM	100 to 500 nM	CC(C)COC(=O)Nc1ccn(CCC(F)Cn2cc(C(=O)NCc3cc(C(F)(F)F)ccn3)nn2)c(=O)n1 (stereo not drawn) [Example 490, 2-methylpropyl N-(1-{3-fluoro-4-[4-({[4-(trifluoromethyl)pyridin-2-yl]methyl}carbamoyl)-1H-1,2,3-triazol-1-yl]butyl}-2-oxo-1,2-dihydropyrimidin-4-yl)carbamate]
< 100 nM	< 100 nM	O=C(Nc1ccn(CCC(F)Cn2cc(C(=O)NCc3cccc(OC(F)(F)F)c3)nn2)c(=O)n1)OCc1cccc(OC(F)(F)F)c1 (stereo not drawn) [Example 491, 3-(trifluoromethoxy)benzyl(1-(3-fluoro-4-(4-((3-(trifluoromethoxy)benzyl)carbamoyl)-1H-1,2,3-triazol-1-yl)butyl)-2-oxo-1,2-dihydropyrimidin-4-yl)carbamate]
< 100 nM	< 100 nM	CC(C)(C)COC(=O)Nc1ccn(CCC(F)Cn2cc(C(=O)NCc3cc(C(F)(F)F)ccn3)nn2)c(=O)n1 (stereo not drawn) [Example 492, 2,2-dimethylpropyl N-(1-{3-fluoro-4-[4-({[4-(trifluoromethyl)pyridin-2-yl]methyl}carbamoyl)-1H-1,2,3-triazol-1-yl]butyl}-2-oxo-1,2-dihydropyrimidin-4-yl)carbamate]
< 100 nM	< 100 nM	CC(C)(C)COC(=O)Nc1ccn(CCC(F)Cn2cc(C(=O)NCc3cccc(OC(F)(F)F)c3)nn2)c(=O)n1 (stereo not drawn) [Example 493, 2,2-dimethylpropyl N-(1-{3-fluoro-4-[4-({[3-(trifluoro-methoxy)phenyl]methyl}carbamoyl)-1H-1,2,3-triazol-1-yl]butyl}-2-oxo-1,2-dihydropyrimidin-4-yl)carbamate]
500 to 5000 nM	> 5000 nM	O=C(NCc1cc(C(F)(F)F)ccn1)c1cn(CC(F)CCn2ccc(Cn3ccccc3=O)cc2=O)nn1 (stereo not drawn) [Example 494, 1-(2-fluoro-4-{2-oxo-4-[(2-oxo-1,2-dihydropyridin-1-yl)methyl]-1,2-dihydropyridin-1-yl}butyl)-N-{[4-(trifluoromethyl)pyridin-2-yl]methyl}-1H-1,2,3-triazole-4-carboxamide]
< 100 nM	500 to 5000 nM	O=C(Nc1ccn(CCC(F)Cn2cc(C(=O)NCc3cc(C(F)(F)F)ccn3)nn2)c(=O)n1)OC1CCC(F)(F)CC1 (stereo not drawn) [Example 495, 4,4-difluorocyclohexyl N-(1-{3-fluoro-4-[4-({[4-(trifluoromethyl)pyridin-2-yl]methyl}carbamoyl)-1H-1,2,3-triazol-1-yl]butyl}-2-oxo-1,2-dihydropyrimidin-4-yl)carbamate]
500 to 5000 nM	> 5000 nM	O=C(Nc1ccn(CCC(F)Cn2cc(C(=O)NCc3cc(C(F)(F)F)ccn3)nn2)c(=O)n1)NC1CCC1 (stereo not drawn) [Example 496, 1-(4-{4-[(cyclobutylcarbamoyl)amino]-2-oxo-1,2-dihydropyrimidin-1-yl}-2-fluorobutyl)-N-{[4-(trifluoromethyl)pyridin-2-yl]methyl}-1H-1,2,3-triazole-4-carboxamide]
< 100 nM	100 to 500 nM	CC(OC(=O)Nc1ccn(CCC(F)Cn2cc(C(=O)NCc3cccc(OC(F)(F)F)c3)nn2)c(=O)n1)c1ccccc1 (stereo not drawn) [Example 497, 1-phenylethyl N-(1-{3-fluoro-4-[4-({[3-(trifluoromethoxy)phenyl]methyl}carbamoyl)-1H-1,2,3-triazol-1-yl]butyl}-2-oxo-1,2-dihydropyrimidin-4-yl)carbamate]
< 100 nM	< 100 nM	O=C(Nc1ccn(CCC(F)Cn2cc(C(=O)NCc3cccc(OC(F)(F)F)c3)nn2)c(=O)n1)OC1CCC(F)(F)CC1 (stereo not drawn) [Example 498, 4,4-difluorocyclohexyl N-(1-{3-fluoro-4-[4-({[3-(trifluoro-methoxy)phenyl]methyl}carbamoyl)-1H-1,2,3-triazol-1-yl]butyl}-2-oxo-1,2-dihydropyrimidin-4-yl)carbamate]
500 to 5000 nM	> 5000 nM	O=C(Nc1ccn(CCC(F)Cn2cc(C(=O)NCc3cccc(OC(F)(F)F)c3)nn2)c(=O)n1)NC1CCC1 (stereo not drawn) [Example 499, 1-(4-{4-[(cyclobutylcarbamoyl)amino]-2-oxo-1,2-dihydropyrimidin-1-yl}-2-fluorobutyl)-N-{[3-(trifluoromethoxy)phenyl]methyl}-1H-1,2,3-triazole-4-carboxamide]
< 100 nM	< 100 nM	O=C(Nc1ccn(CCC(F)Cn2cc(C(=O)NCc3cc(C(F)(F)F)ccn3)nn2)c(=O)n1)OCc1cccc(OC(F)(F)F)c1 (stereo not drawn) [Example 500, [3-(trifluoromethoxy)phenyl]methyl N-(1-{3-fluoro-4-[4-({[4-(trifluoromethyl)pyridin-2-yl]methyl}carbamoyl)-1H-1,2,3-triazol-1-yl]butyl}-2-oxo-1,2-dihydropyrimidin-4-yl)carbamate]
< 100 nM	100 to 500 nM	O=C(Nc1ccn(CCC(F)Cn2cc(C(=O)NCc3cc(C(F)(F)F)ccn3)nn2)c(=O)n1)OCc1ccccc1F (stereo not drawn) [Example 501, (2-fluorophenyl)methyl N-(1-{3-fluoro-4-[4-({[4-(trifluoromethyl)pyridin-2-yl]methyl}carbamoyl)-1H-1,2,3-triazol-1-yl]butyl}-2-oxo-1,2-dihydropyrimidin-4-yl)carbamate]
< 100 nM	100 to 500 nM	O=C(Cc1ccccc1)Nc1nnc(CCCCn2ccc(NC(=O)CC3CCCC3)c(F)c2=O)s1 [Example 502, 2-cyclopentyl-N-(3-fluoro-2-oxo-1-{4-[5-(2-phenylacetamido)-1,3,4-thiadiazol-2-yl]butyl}-1,2-dihydropyridin-4-yl)acetamide]
